Experimental data: patent US9403756B2, “N-phenyl anthranilic acid derivatives and uses thereof” (Ramot at Tel-Aviv University Ltd., priority 2007, dated 2016)
“And” between values parts separate entries of the source, which are not always exact repeats. Identical values can stand only once. Like-named read-outs stand apart in the source and are kept apart here.

Experiments:
[1] = biological target: T1, Kv7.2/3 channels (Homo sapiens, UniProt O43525+O43526); test: Kv7.2/3 channels coexpressed in CHO cells, whole-cell patch-clamp; format: cell-based; details: for Activity: M-channel modulation, Kv7.2 and Kv7.3 subunits coexpressed in CHO cells; for ΔV50 (mV): left-shift of the activation curve of Kv7.2/3 channels; for V50: control V50=−32.1±8.9 mV; for fold increase in current amplitude: stepped from −90 to −50 mV, n=10
T1 construct: expressed in transfected cells; host or cells: CHO cells
Method: Chinese hamster ovary (CHO) cells were grown in Dulbecco's modified Eagle's medium (DMEM) supplemented with 2 mM glutamine, 10% fetal calf serum and antibiotics. Briefly, 40,000 cells seeded on poly-D-lysine-coated glass coverslips (13 mm diameter) in a 24-multiwell plate were transfected with pIRES-CD8 (0.5 μg) as a marker for transfection, and with Kv7.2 (0.5 μg) and Kv7.3 (0.5 μg) or TRPV1 […] or TRPV6 […].
For electrophysiology, transfected cells were visualized approximately 40 hours following transfection, using anti-CD8 antibody-coated beads. Transfection was performed using Fugene 6 (Roche, Indianapolis Ind., USA) according to the manufacturer's protocol.
Voltage-clamp recordings in CHO cells were performed, using the whole-cell configuration of the patch-clamp technique. Signals were amplified using an Axopatch 200B patch-clamp amplifier (Molecular Devices, Sunnyvale, Calif.), sampled at 2 kHz and filtered at 800 Hz via a 4-pole Bessel low pass filter. […] The patch pipettes were pulled from borosilicate glass (Warner Instrument Corp, USA) with a resistance of 2-5 MΩ. For K^+ current recordings in CHO cells, the intracellular pipette solution contained (in mM): 130 KCl, 1 MgCl2, 5 K2ATP, 5 EGTA, 10 HEPES, adjusted with KOH to pH 7.4 (290 mOsm). The extracellular solution contained (in mM): 140 NaCl, 4 KCl, 1.8 CaCl2, 1.2 MgCl2, 11 glucose, 5.5 HEPES, adjusted with NaOH to pH 7.4 (310 mOsm).
Data analysis was performed using the Clampfit program (pClamp 9.2, Molecular Devices), Microsoft Excel (Microsoft) and Prism 4.0 (GraphPad). Chord conductance (G) was calculated by using the following equation: G=I/(V−Vrev) where I corresponds to the current amplitude measured at the end of the pulse and Vrev, the calculated reversal potential. G was estimated at various test voltages V and then, normalized to a maximal conductance value, Gmax. Activation curves were fitted by one Boltzmann distribution: G/Gmax=1/{1+exp[(V50−V)/s]} where V50 is the voltage at which the current is half-activated and s is the slope factor. All data were expressed as mean±SEM. Statistically significant differences were assessed by Student's t-test. Analysis of sEPSCs and sIPSCs was done using the Clampfit program (pClamp 9.2, Molecular Devices) and included evaluation of the individual events as well as the average event amplitude and the integral of the event (total charge transfer).
In these studies, the impact of the compounds on M-channel activity was measured by the heterologous coexpression of Kv7.2 and Kv7.3 subunits in CHO cells.

[2] = biological target: T2, KCNQ2 mutant S121A (Homo sapiens, UniProt O43526, S121A); test: KCNQ2 S1-S2 mutant S121A in CHO cells; format: cell-based; details: 25 μM NH29
T2 construct: expressed in transfected cells; host or cells: CHO cells
T2 sequence (O43526 whole entry S121A): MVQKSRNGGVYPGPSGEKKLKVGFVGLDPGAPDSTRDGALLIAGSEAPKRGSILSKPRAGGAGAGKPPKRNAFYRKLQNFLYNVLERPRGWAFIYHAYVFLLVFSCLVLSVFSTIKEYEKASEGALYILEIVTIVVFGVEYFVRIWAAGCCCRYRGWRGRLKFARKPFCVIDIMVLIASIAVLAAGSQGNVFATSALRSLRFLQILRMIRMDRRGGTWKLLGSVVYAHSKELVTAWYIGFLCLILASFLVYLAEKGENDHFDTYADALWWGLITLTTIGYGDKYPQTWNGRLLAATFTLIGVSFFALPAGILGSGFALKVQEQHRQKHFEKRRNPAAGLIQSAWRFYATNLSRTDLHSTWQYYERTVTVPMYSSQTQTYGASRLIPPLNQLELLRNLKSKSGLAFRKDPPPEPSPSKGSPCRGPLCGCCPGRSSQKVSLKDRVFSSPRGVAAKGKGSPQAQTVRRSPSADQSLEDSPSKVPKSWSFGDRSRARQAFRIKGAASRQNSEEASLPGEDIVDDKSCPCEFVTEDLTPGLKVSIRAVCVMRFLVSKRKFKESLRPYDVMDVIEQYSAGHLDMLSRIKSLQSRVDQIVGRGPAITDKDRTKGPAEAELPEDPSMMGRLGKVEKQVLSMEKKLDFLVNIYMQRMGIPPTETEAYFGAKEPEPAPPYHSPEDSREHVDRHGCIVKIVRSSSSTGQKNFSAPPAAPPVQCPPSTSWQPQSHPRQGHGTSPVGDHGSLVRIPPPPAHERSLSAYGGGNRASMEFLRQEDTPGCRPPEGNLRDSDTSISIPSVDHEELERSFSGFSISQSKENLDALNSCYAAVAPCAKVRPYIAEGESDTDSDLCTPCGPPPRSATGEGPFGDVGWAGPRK
Source text: FIGS. 12A-F present the potentiating effect of NH29, an exemplary channel opener compound according to embodiments of the present invention, on selected KCNQ2 mutants. Shown are bar diagrams comparing the potentiating effect of NH29 on native KCNQ2 and KCNQ2 mutants, wherein the mutated amino acids are located at the S1-S2 helix region (FIG. 12A) or S4 helix region (FIG. 12D) and wherein the opener effect is expressed as percent of the control current in the absence of the opener. For comparison, marked as a green line, is the observed current increase of native KCNQ2 by NH29. FIGS. 12B 12C, 12E and 12F present representative traces recorded from CHO cell transfected with the KCNQ2 mutant S122A, S121A, L206C and R201A respectively, before and after external application of 25 μM of NH29 and wherein the membrane potential was stepped from −90 mV holding potential to −40 mV for 1.5 seconds pulse duration.
Voltage-clamp recordings in CHO cells were performed, using the whole-cell configuration of the patch-clamp technique. Signals were amplified using an Axopatch 200B patch-clamp amplifier (Molecular Devices, Sunnyvale, Calif.), sampled at 2 kHz and filtered at 800 Hz via a 4-pole Bessel low pass filter. […] Series resistances (3-13 MΩ) were compensated (75-90%) and periodically monitored.

[3] = tested on: COX; test: Anti-COX activity in cell culture, CT26 and D122 cell lines (results in words); format: cell-based, mouse; details: COX-dependent synthesis of PGE2
Method: Mouse colon adenocarcinoma CT26 and mouse lewis lung carcinoma D122 cells were grown in DMEM (D122) or RPMI (CT26) supplemented with 10% fetal calf serum, 4% glutamine, 1% penicillin-streptomycin-nystatin and 3% non essential amino acids (D122) and were kept in a humidified 37° C. incubator with 5% CO2. For the COX activity assays, cells were grown onto 24 multi-well plates.
Before the assay, cells were washed with serum-free medium; then the tested compounds were added to the medium and incubated for 30 minutes at 37° C. after which 30 μM arachidonic acid were added and incubated for additional 20 minutes. At the end of the incubation period, 10 μM Indomethacin were added to stop the reaction and medium was transferred to another 24 multi-well plate for measuring PGE2 production by radioimmunoassay (DuPont-NEN; Boston Mass.) according to manufacturer protocol. Protein determination was assayed on scraped cells using the Bradford method (1976) [Bradford M. M. 1976. Anal. Biochem. 72:248-254], with BSA as a standard and was used to normalize the amount of PGE2 production.
The anti-COX activity of NH25, NH29 and NH30 was examined in Mouse colon adenocarcinoma CT26 and mouse lewis lung carcinoma D122 cell lines. Cells were incubated with each of the tested compounds and the level of the COX-dependent synthesis of PGE2 was quantified using radioimmunoassay techniques.

| SMILES | EC50 [1] [µM] | left-shift of Kv7.2/3 activation curve compared to control ([1]; 10 μM) [mV] | fold increase of Kv7.2/3 current amplitude ([1]; 25 μM, at −50 mV, n=5) [fold] | left-shift of Kv7.2/3 activation curve compared to control ([1]; 100 μM) [mV] | Activity [1] | ΔV50 (mV) [1] | EC50 ([1]; opener potency, concentration-dependent left-shift in half-activation potential ΔV50, sigmoidal fit) [µM] | fold activation of current [2] [fold] | anti-COX activity [3] | V50 ([1]; 10 μM NH25, n=5) [mV] | fold increase in current amplitude ([1]; 10 μM) [fold] | left-shift of Kv7.2/3 activation curve compared to control ([1]; 50 μM) [mV] | V50 ([1]; 50 μM NH25, n=5) [mV] | fold increase in current amplitude ([1]; 50 μM) [fold] | left-shift of Kv7.2/3 activation curve compared to control ([1]; 200 μM) [mV] | V50 ([1]; 200 μM NH25, n=5) [mV] | deactivation kinetics τdeact ([1]; NH25, tail currents at −60 mV, control 129±22 ms, n=5) [ms] | EC50 ([1]; opener potency, concentration-dependent left-shift in half-activation potential ΔV50, sigmoidal fit, read-out: EC50) [µM] |
| --- | --- | --- | --- | --- | --- | --- | --- | --- | --- | --- | --- | --- | --- | --- | --- | --- | --- | --- |
| O=C(Cc1cc([N+](=O)[O-])cc([N+](=O)[O-])c1Nc1c(Cl)cc([N+](=O)[O-])cc1Cl)NCCO [NH29] | 14 ± 2 | −13 | 9.4±1.2 | −31 | Opener | −31.3 mV | 14 | 2 | did not exhibit anti-COX activity |  |  |  |  |  |  |  |  |  |
| O=C(Cc1cc([N+](=O)[O-])ccc1Nc1c(Cl)cccc1Cl)OCCO [NH25] |  | −11 |  |  | Opener | −31.0 mV and −31 mV |  |  | exhibited anti-COX activity comparable to that of Diclofenac | −43.6±9.0 | 3.2 | −21 | −53.5±9.3 | 9.1 | −31 | −63.1±2.0 | 284 ± 43 | 22 |
